This assay deals with S aureus A798. The assay can be described thus: Minimal inhibitory concentration (MIC), microdilution method in cation-adjusted Mueller-Hinton Broth following NCCLS guidelines. Format: cell-based. The note with it: pH of test medium 7.2-7.3. As to the method: These assays have been performed following the description given in “Methods for dilution Antimicrobial Susceptibility Tests for Bacteria that Grow Aerobically, 4th ed.; Approved standard: NCCLS Document M7-A4; National Committee for Clinical Laboratory Standards Villanova, Pa., USA, 1997”. Minimal inhibitory concentrations (MICs; mg/l) were determined in cation-adjusted Mueller-Hinton Broth by a microdilution method following NCCLS guidelines (National Committee for Clinical Laboratory Standards. Methods for Dilution Antimicrobial Susceptibility). The pH of the test medium was 7.2-7.3. All Example compounds were tested against several Gram positive and Gram negative bacteria.
In general terms: Broth dilution looks for growth in wells or tubes with falling amounts of substance.

≈ marks a conversion by molar mass, not a printed value.

Experimental findings from patent US8217029B2, “Oxazolidinone antibiotics” (Actelion Pharmaceuticals Ltd, priority 2007, dated 2012) are described below.

`COc1ccc2nccc(N3CCN(CC4CN(c5cc6c(nn5)OCCO6)C(=O)O4)CC3)c2n1` (racemic) [Example 110, (RS)-3-(6,7-Dihydro-[1,4]dioxino[2,3-c]pyridazin-3-yl)-5-[4-(6-methoxy-[1,5]naphthyridin-4-yl)-piperazin-1-ylmethyl]-oxazolidin-2-one]: the minimum inhibitory concentration (MIC) (in general, the smallest concentration in the dilution series that meets the test's criterion for growth inhibition) stood at 8 µg/mL (≈ 16.7 µM).

Consider `COc1ccc2nccc(N3CCN(CC4CN(c5ccc6ccc(=O)[nH]c6c5)C(=O)O4)CC3)c2n1` (racemic) [Example 111, (RS)-7-{5-[4-(6-Methoxy-[1,5]naphthyridin-4-yl)-piperazin-1-ylmethyl]-2-oxo-oxazolidin-3-yl}-1H-quinolin-2-one], for which the MIC was determined as 0.125 µg/mL (≈ 0.257 µM).

On to `COc1ccc2nccc(N3CCN(CC4CN(c5ccc6c(n5)NC(=O)CO6)C(=O)O4)CC3)c2n1` (racemic) [Example 113, (RS)-6-{5-[4-(6-Methoxy-[1,5]naphthyridin-4-yl)-piperazin-1-ylmethyl]-2-oxo-oxazolidin-3-yl}-4H-pyrido[3,2-b][1,4]oxazin-3-one], for which the minimal inhibitory concentration (MIC) is at most 0.031 µg/mL.

`COc1ccc2nccc(N3CC(CNCCC4CN(c5ccc(C)c(F)c5)C(=O)O4)C3)c2n1` (racemic) [Example 149, (RS)-3-(3-Fluoro-4-methyl-phenyl)-5-(2-{[1-(6-methoxy-[1,5]naphthyridin-4-yl)-azetidin-3-ylmethyl]-amino}-ethyl)-oxazolidin-2-one]: the MIC is 0.063 µg/mL (≈ 0.135 µM).

`CCOC(=O)[C@@H]1CN(c2ccnc3ccc(OC)nc23)C[C@H]1NC[C@H]1CN(c2ccc3c(c2)NC(=O)CS3)C(=O)O1` (relative stereo) [Example 73, (3R*,4S*)-1-(6-Methoxy-[1,5]naphthyridin-4-yl)-4-{[(S)-2-oxo-3-(3-oxo-3,4-dihydro-2H-benzo[1,4]thiazin-6-yl)-oxazolidin-5-ylmethyl]amino}-pyrrolidine-3-carboxylic acid ethyl ester]: the MIC was at most 0.031 µg/mL.

`COc1ccc2nccc(N3C[C@@H](NC[C@@H]4CN(c5ccc6c(c5)NC(=O)CS6)C(=O)O4)[C@H](C(=O)O)C3)c2n1` (relative stereo) [Example 74, (3R*,4S*)-1-(6-Methoxy-[1,5]naphthyridin-4-yl)-4-{[(R)-2-oxo-3-(3-oxo-3,4-dihydro-2H-benzo[1,4]thiazin-6-yl)-oxazolidin-5-ylmethyl]-amino}-pyrrolidine-3-carboxylic acid] came in with an MIC of 0.5 µg/mL (≈ 0.908 µM).

Take `COc1ccc2nccc(N3C[C@@H](NC[C@@H]4CN(c5ccc6c(c5)NC(=O)CS6)C(=O)O4)[C@H](OC)C3)c2n1` (relative stereo) [Example 75, 6-((R)-5-{[(3R*,4R*)-4-Methoxy-1-(6-methoxy-[1,5]naphthyridin-4-yl)-pyrrolidin-3-ylamino]-methyl}-2-oxo-oxazolidin-3-yl)-4H-benzo[1,4]thiazin-3-one]: the MIC is at most 0.031 µg/mL.

`COc1ccc2nccc(N3C[C@@H](O)[C@H](NC[C@@H]4CN(c5ccc6c(c5)NC(=O)CS6)C(=O)O4)C3)c2n1` (relative stereo) [Example 76, 6-((R)-5-{[(3R*,4R*)-4-Hydroxy-1-(6-methoxy-[1,5]naphthyridin-4-yl)-pyrrolidin-3-ylamino]-methyl}-2-oxo-oxazolidin-3-yl)-4H-benzo[1,4]thiazin-3-one] showed a minimal inhibitory concentration (MIC) of at most 0.031 µg/mL.

Turning to `COc1ccc2nccc(N3C[C@@H](O)[C@H](NC[C@@H]4CN(c5ccc6c(c5)OCCO6)C(=O)O4)C3)c2n1` (relative stereo) [Example 77, (R)-3-(2,3-Dihydro-benzo[1,4]dioxin-6-yl)-5-{[(3R*,4R*)-4-hydroxy-1-(6-methoxy-[1,5]naphthyridin-4-yl)-pyrrolidin-3-ylamino]-methyl}-oxazolidin-2-one], it took 0.25 µg/mL (≈ 0.507 µM) to inhibit growth (MIC).

With `COc1ccc2nccc(N3CC[C@@H]4CN(C[C@@H]5CN(c6ccc7c(c6)NC(=O)CS7)C(=O)O5)C[C@@H]43)c2n1` (relative stereo) [Example 91, 6-{{(R)-5-[(3aR*,6aR*)-1-(6-Methoxy-[1,5]naphthyridin-4-yl)-hexahydro-pyrrolo[3,4-b]pyrrol-5-yl]-methyl}-2-oxo-oxazolidin-3-yl}-4H-benzo[1,4]thiazin-3-one], the “MIC S aureus A798” value was “<=0.031 mg/l”.

Consider `COc1ccc2nccc(N3CCN(C[C@H]4CN(c5ccc(C)c(F)c5)C(=O)O4)C(=O)C3)c2n1` (single isomer, unassigned) [Example 100, [(S)-3-(3-Fluoro-4-methyl-phenyl)-2-oxo-oxazolidin-5-ylmethyl]-4-(6-methoxy-[1,5]naphthyridin-4-yl)-piperazin-2-one or [(R)-3-(3-Fluoro-4-methyl-phenyl)-2-oxo-oxazolidin-5-ylmethyl]-4-(6-methoxy-[1,5]naphthyridin-4-yl)-piperazin-2-one], for which the “MIC S aureus A798” value came to 0.063 µg/mL (≈ 0.135 µM).

As to `COc1ccc2nccc(N3CC(CNC[C@H]4CN(c5ccc6c(c5)OCCO6)C(=O)O4)C3)c2n1` [Example 1, (S)-3-(2,3-Dihydro-benzo[1,4]dioxin-6-yl)-5-({[1-(6-methoxy-[1,5]naphthyridin-4-yl)-azetidin-3-ylmethyl]-amino}-methyl)-oxazolidin-2-one], the MIC turned out to be 0.25 µg/mL (≈ 0.524 µM).

In the case of `COc1ccc2nccc(N3CC(CNC(=O)[C@@H]4CN(c5ccc6c(c5)OCCO6)C(=O)O4)C3)c2n1` [Example 2, (S)-3-(2,3-Dihydro-benzo[1,4]dioxin-6-yl)-2-oxo-oxazolidine-5-carboxylic acid[1-(6-methoxy-[1,5]naphthyridin-4-yl)-azetidin-3-ylmethyl]-amide], the “MIC S aureus A798” value was determined as 4 µg/mL (≈ 8.14 µM).

The molecule `COc1ccc2nccc(N3CCN(C[C@@H]4CN(c5ccc6c(c5)OCCO6)C(=O)O4)CC3)c2n1` [Example 9, (R)-3-(2,3-Dihydro-benzo[1,4]dioxin-6-yl)-5-[4-(6-methoxy-[1,5]naphthyridin-4-yl)-piperazin-1-ylmethyl]-oxazolidin-2-one] gave an MIC of at most 0.031 µg/mL.

Regarding `COc1ccc2nccc(N3CCN(C[C@@H]4CN(c5cccc(OC(F)(F)F)c5)C(=O)O4)CC3)c2n1` [Example 10, (R)-5-[4-(6-Methoxy-[1,5]naphthyridin-4-yl)-piperazin-1-ylmethyl]-3-(3-trifluoromethoxy-phenyl)-oxazolidin-2-one], it took 0.25 µg/mL (≈ 0.497 µM) to inhibit growth (MIC).

`COc1ccc2nccc(N3CCN(C[C@@H]4CN(c5ccc(OC(F)(F)F)cc5)C(=O)O4)CC3)c2n1` [Example 11, (R)-5-[4-(6-Methoxy-[1,5]naphthyridin-4-yl)-piperazin-1-ylmethyl]-3-(4-trifluoromethoxy-phenyl)-oxazolidin-2-one] registered a minimal inhibitory concentration (MIC) of 0.063 µg/mL (≈ 0.125 µM).

`COc1ccc2nccc(N3CCN(C[C@@H]4CN(c5ccccc5)C(=O)O4)CC3)c2n1` [Example 12, (R)-5-[4-(6-Methoxy-[1,5]naphthyridin-4-yl)-piperazin-1-ylmethyl]-3-phenyl-oxazolidin-2-one]: the MIC was at most 0.031 µg/mL.

`COc1ccc2nccc(N3CCN(C[C@@H]4CN(c5ccc(Br)c(F)c5)C(=O)O4)CC3)c2n1` [Example 13, (R)-3-(4-Bromo-3-fluoro-phenyl)-5-[4-(6-methoxy-[1,5]naphthyridin-4-yl)-piperazin-1-ylmethyl]-oxazolidin-2-one]: the MIC is at most 0.031 µg/mL.

As for `COc1ccc2nccc(N3CCN(C[C@@H]4CN(c5ccc(OC)c(OC)c5)C(=O)O4)CC3)c2n1` [Example 14, (R)-3-(3,4-Dimethoxy-phenyl)-5-[4-(6-methoxy-[1,5]naphthyridin-4-yl)-piperazin-1-ylmethyl]-oxazolidin-2-one], inhibition of growth (MIC) required 2 µg/mL (≈ 4.17 µM).

`COc1ccc2nccc(N3CCN(C[C@@H]4CN(c5ccc(F)cc5)C(=O)O4)CC3)c2n1` [Example 15, (R)-3-(4-Fluoro-phenyl)-5-[4-(6-methoxy-[1,5]naphthyridin-4-yl)-piperazin-1-ylmethyl]-oxazolidin-2-one] had an MIC of 0.25 µg/mL (≈ 0.571 µM).

In turn, `COc1ccc2nccc(N3CCN(C[C@@H]4CN(c5cccc(C(F)(F)F)c5)C(=O)O4)CC3)c2n1` [Example 16, (R)-5-[4-(6-Methoxy-[1,5]naphthyridin-4-yl)-piperazin-1-ylmethyl]-3-(3-trifluoromethyl-phenyl)-oxazolidin-2-one] showed an MIC of 0.25 µg/mL (≈ 0.513 µM).

Molecule `COc1ccc2nccc(N3CCN(C[C@@H]4CN(c5ccc(F)c(Cl)c5)C(=O)O4)CC3)c2n1` [Example 17, (R)-3-(3-Chloro-4-fluoro-phenyl)-5-[4-(6-methoxy-[1,5]naphthyridin-4-yl)-piperazin-1-ylmethyl]-oxazolidin-2-one] had an MIC of at most 0.031 µg/mL.

On to `COc1ccc2nccc(N3CCN(C[C@@H]4CN(c5ccc(C)c(C(F)(F)F)c5)C(=O)O4)CC3)c2n1` [Example 18, (R)-5-[4-(6-Methoxy-[1,5]naphthyridin-4-yl)-piperazin-1-ylmethyl]-3-(4-methyl-3-trifluoromethyl-phenyl)-oxazolidin-2-one], for which the MIC is at most 0.031 µg/mL.

Consider `COc1ccc2nccc(N3CCN(C[C@@H]4CN(c5ccc6ncsc6c5)C(=O)O4)CC3)c2n1` [Example 19, (R)-3-Benzothiazol-6-yl-5-[4-(6-methoxy-[1,5]naphthyridin-4-yl)-piperazin-1-ylmethyl]-oxazolidin-2-one], for which the MIC was at most 0.031 µg/mL.

With `COc1ccc2nccc(N3CCN(C[C@@H]4CN(c5ccc(OC(F)F)cc5)C(=O)O4)CC3)c2n1` [Example 20, (R)-3-(4-Difluoromethoxy-phenyl)-5-[4-(6-methoxy-[1,5]naphthyridin-4-yl)-piperazin-1-ylmethyl]-oxazolidin-2-one], the minimum inhibitory concentration (MIC) is at most 0.031 µg/mL.

`COc1ccc2nccc(N3CCN(C[C@@H]4CN(c5cccc(C#N)c5)C(=O)O4)CC3)c2n1` [Example 21, 3-{(R)-5-[4-(6-Methoxy-[1,5]naphthyridin-4-yl)-piperazin-1-ylmethyl]-2-oxo-oxazolidin-3-yl}-benzonitrile] showed an MIC of 0.25 µg/mL (≈ 0.562 µM).

Molecule `COc1ccc2nccc(N3CCN(C[C@@H]4CN(c5ccc6c(c5)NC(=O)CS6)C(=O)O4)CC3)c2n1` [Example 22, 6-{(R)-5-[4-(6-Methoxy-[1,5]naphthyridin-4-yl)-piperazin-1-ylmethyl]-2-oxo-oxazolidin-3-yl}-4H-benzo[1,4]thiazin-3-one] yielded an MIC of at most 0.031 µg/mL.
